One test deals with T. equinum. Put plainly: MIC testing against different Trichophyton species: T. equinum. The class given is cell-based. The method, then: (§1) Materials Used: • 10 mm×100 mm petri plate of dermatophyte culture grown to confluency (>14 days) on Sabouraud's dextrose agar (Becton Dickinson, Sparks Md.) containing 50 mg/L chloramphenicol and 500 mg/L cycloheximide (Sigma Chemical Company, St. Louis Mo.) (see appendix A for recipe). • 1× sterile Phosphate Buffered Saline (Sigma Chemical Company, St. Louis Mo.). • (2) 15 mL sterile disposable conical tubes (Thermo Fisher Scientific, Rochester N.Y.). • Disposable sterile inoculating loop (Fisher Scientific, Hanover Park Ill.). • Disposable sterile transfer pipette (Fisher Scientific, Hanover Park Ill.). • Sterilized 2″×2″ 4 ply gauze (Medline Industries, Mundelein Ill.) • 30 mL sterile disposable syringe (Becton Dickinson, Franklin Lakes N.J.). • Hemocytometer (Fisher Scientific, Hanover Park Ill.). […]

The subject of the next test is T. mentagrophytes. Put plainly: MIC testing against different Trichophyton species: T. mentagrophytes. The class given is cell-based. How it is done:
as §1

Test [1] has as its system 5 genetically distinct strain of T. tonsurans. The test can be described thus: MIC testing against 5 genetically distinct strains of T. tonsurans. As to conditions: Trichophyton tonsurans. It counts as cell-based. The method, then: (§2) Materials Used: • 10 mm×100 mm petri plate of dermatophyte culture grown to confluency (>14 days) on Sabouraud's dextrose agar (Becton Dickinson, Sparks Md.) containing 50 mg/L chloramphenicol and 500 mg/L cycloheximide (Sigma Chemical Company, St. Louis Mo.) (see appendix A for recipe). • 1× sterile Phosphate Buffered Saline (Sigma Chemical Company, St. Louis Mo.). • (2) 15 mL sterile disposable conical tubes (Thermo Fisher Scientific, Rochester N.Y.). • Disposable sterile inoculating loop (Fisher Scientific, Hanover Park Ill.). • Disposable sterile transfer pipette (Fisher Scientific, Hanover Park Ill.). • Sterilized 2″×2″ 4 ply gauze (Medline Industries, Mundelein Ill.) • 30 mL sterile disposable syringe (Becton Dickinson, Franklin Lakes N.J.). • Hemocytometer (Fisher Scientific, Hanover Park Ill.).
(§3) Spore Prep Procedure (performed aseptically in a biosafety cabinet): • The fungal plate was flooded with 10 mL of sterile 1×PBS and with a sterile disposable inoculating loop, then the surface was gently scraped until all the fungal material (hyphae and spores) was liberated into the PBS. • Using a disposable transfer pipette, the entire volume of PBS/spores was transferred from the plate into a sterile 15 mL conical tube. • Next, 2 mL of sterile 1×PBS was added to the plate and swirled to rinse. • Using the transfer pipette, the remaining volume of PBS/spores was transferred from the plate to the 15 mL conical. • Then, the 15 mL tube was capped and vortexed at max speed for 10-15 seconds, set aside. • The plunger from the 30 mL syringe was then removed and the barrel was packed with 1 square of sterile 2″×2″ gauze. • Using the plunger, the gauze was firmly packed at the bottom of the barrel then the plunger was removed. • The syringe barrel was placed into a new sterile 15 mL conical tube and the entire contents of the 15 mL PBS/spore suspension was poured directly onto the gauze in the syringe barrel. • The plunger was then gently inserted into the barrel and depressed all the way down to filter the spore/hyphal suspension through the gauze. • The plunger was gently removed and additional 2 mL of sterile PBS was added back to the original 15 mL conical tube.
(§4) MIC Testing (96 well format):
(§5) To Make the Spore Suspension:
(§6) • A 2 mM stock of the compound to be tested was made in 100% DMSO in a sterile 1.5 mL microfuge tube. • Vortexed the tube vigorously for 1 minute, then protected the compound from light and rocked or shook for 1 hour at room temperature to fully dissolve. • NOTE: Because the 2× culture media was diluted with an equal volume of spore/PBS solution to achieve a 1× final media concentration, the high standard for the range of compound to be tested was made at 2× the highest concentration desired and contain a final DMSO concentration of 0.5%.
(§7) To generate the range of compound to be tested, the following dilution protocol was performed:
(§8) (a) The high standard was made:
(§9) The result was 1000 μL of a 20 μM stock in 2× Culture Medium with a final [DMSO] of 1%.
(§10) (b) The drug dilution range to be tested was made by serially diluting the high standard 1:1 with 2× Culture Medium/1% DMSO.
(§11) Aseptically added 100 μL of the drug/media manually to each well according to the plate map in FIG. 2, as follows: […]

In test [2] the test system is reference strain of T. tonsurans. Put plainly: MIC / dose-response testing against reference strain of T. tonsurans. It counts as cell-based, Trichophyton tonsurans. How it is done: as §2, §3, §4, §5, §6, §7, §8, §9, §10, §11
Test [3] shares this test system. The test can be described thus: Preliminary screening of 7,676 compounds (384 well format), growth read at 600 nm. It counts as cell-based, Trichophyton tonsurans. As to conditions: preliminary screen. How it is done: as §2, §3
Screening (384 well format):
Note: final concentration of DMSO was not to exceed 0.5%.
NOTE: there was residual spore suspension, the calculations above allowed for overage to ensure enough suspension is made for each plate. • Using the peristaltic pump, the automated dispenser was programmed to deliver 35 μL of 2×SabDEX broth to each well in the 384 well plate. The pump was then purged of growth media and re-primed with the spore suspension. The dispenser was then programmed to deliver 35 μL of spore suspension to each test well (to include+growth controls). • Negative growth controls were made by manually pipetting 35 μL of sterile 1×PBS from a sterile multi-channel boat into each (−) control well using a 100 μL pipette. • Each plate was given a numerical designation, dated, sealed with an EDGE® seal and placed in a 32° C. incubator for 48 hours. • After incubation, the seal was carefully removed and the plate read at 600 nm using a single point read on a microplate reader. • If more time was required, the plate was re-sealed and incubated an additional 24 hours.

The test system of another test is T. rubrum. Put plainly: MIC testing against different Trichophyton species: T. rubrum. The class given is cell-based. The method, then:
as §1

Where [4] appears, read: Trichophyton tonsurans, dose response (DR plate), reference strain of T. tonsurans, read-out: rMIC50.
The mark [5] stands for this setting: Trichophyton tonsurans, range, reference strain of T. tonsurans (Table 2), read-out: IC50 [range].
The mark [6] stands for this setting: Trichophyton tonsurans, reference strain of T. tonsurans (Table 2), read-out: IC50.

pIC50: −log10 of the molar value. Structures can show the parent of a compound that is named as a salt. Where two headings read alike, the source gives them in different places.

As for `COCc1c(C(C)C)nc(C(C)C)c(/C=C/[C@@H](O)C[C@@H](O)CC(=O)O)c1-c1ccc(F)cc1` [Cerivastatin], the pIC50 was 7.68 with T. equinum; 7.72 in the test on T. mentagrophytes; 8.52 in test [1] (T. tonsurans strain 0924-0254); 8.30 in test [1] (T. tonsurans strain 0924-1093); 7.82 in test [1] (T. tonsurans strain 0924-1456); 8.30 in test [1] (T. tonsurans strain 0924-1669). Also, the pIC50 in test [1] (T. tonsurans strain 1119-0616) is 8.00; in test [2] (setting [4]), more than 8.00; in test [2] (setting [5]), 7.24 to 8.52; in test [2] (setting [6]) it was 8.00; in the test with T. rubrum, 7.17. The “Prelim H ratio” value in test [3] is on record as 1.06. In addition, the “Prelim L ratio” value in test [3] stood at 2.28.

On to `Clc1ccc(C(Cn2ccnc2)OCc2ccsc2Cl)c(Cl)c1` (centres unmarked) [Tioconazole], for which the pIC50 in test [2] (setting [4]) was 7.74. Further, in test [3], the “Prelim H ratio” value was determined as 1.03 and the “Prelim L ratio” value came to 2.02.

Turning to `Cc1cccc(N(C)C(=S)Oc2ccc3ccccc3c2)c1` [Tolnaftate], the pIC50 in test [2] (setting [4]) was 7.89. In addition, in test [3], the “Prelim H ratio” value is listed as 1.01 and the “Prelim L ratio” value was found to be 1.99.

For the molecule `C[C@H]1CC[C@]2(NC1)O[C@H]1C[C@H]3[C@@H]4CC[C@H]5C[C@@H](O)CC[C@]5(C)[C@H]4CC[C@]3(C)[C@H]1[C@@H]2C` [Tomatidine HCl], the pIC50 in test [2] (setting [4]) was 6.31. Also, in test [3], the “Prelim H ratio” value amounted to 0.45 and the “Prelim L ratio” value was 0.92.

`CSc1nc2cc(Cl)c(Oc3cccc(Cl)c3Cl)cc2[nH]1` [Triclabendazole]: in test [2] (setting [4]), the pIC50 is 6.67. Besides, in test [3], the “Prelim H ratio” value is recorded as 1.07 and the “Prelim L ratio” value was 2.14.

Turning to `Oc1cc(Cl)ccc1Oc1ccc(Cl)cc1Cl` [Triclosan], in test [2] (setting [4]), the pIC50 is 6.18. In test [3], the “Prelim H ratio” value amounted to 1.04 and the “Prelim L ratio” value was found to be 2.08.

In the case of `C[C@@H](c1ncncc1F)[C@](O)(Cn1cncn1)c1ccc(F)cc1F` [Voriconazole], in test [2] (setting [4]), the pIC50 is 7.08. In test [3], the “Prelim H ratio” value is on record as 1.00 and the “Prelim L ratio” value was 1.85.

With `CC[C@H](C)C(=O)O[C@H]1CCC=C2C=C[C@H](C)[C@H](CC[C@@H]3C[C@@H](O)CC(=O)O3)[C@H]21` [mevastatin], the pIC50 in test [2] (setting [4]) was 6.19. In addition, the pIC50 in test [2] (setting [6]) is 6.19. In addition, in test [3], the “Prelim H ratio” value amounted to 0.45 and the “Prelim L ratio” value came out at 0.86.

For the molecule `O=C(O)C[C@H](O)C[C@H](O)/C=C/c1c(C2CC2)nc2ccccc2c1-c1ccc(F)cc1` [pitavastatin], the pIC50 in the test on T. equinum was 7.27; in the test with T. mentagrophytes, 7.46; in test [1] (T. tonsurans strain 0924-0254), 8.52; in test [1] (T. tonsurans strain 0924-1093), 7.74; in test [1] (T. tonsurans strain 0924-1456), 7.62; in test [1] (T. tonsurans strain 0924-1669), 7.60. Moreover, the pIC50 is 7.57 in test [1] (T. tonsurans strain 1119-0616), 7.49 to 8.52 in test [2] (setting [5]), 7.52 in test [2] (setting [6]) and 6.83 with T. rubrum.

In the case of `CCC(C)(C)C(=O)O[C@H]1C[C@@H](C)C=C2C=C[C@H](C)[C@H](CC[C@@H](O)C[C@@H](O)CC(=O)O)[C@H]21` [simvistatin acid], the pIC50 in the test with T. equinum was 7.07; in the test with T. mentagrophytes it was 7.15; in test [1] (T. tonsurans strain 0924-0254), 7.54; in test [1] (T. tonsurans strain 0924-1093), 7.30; in test [1] (T. tonsurans strain 0924-1456), 7.28; in test [1] (T. tonsurans strain 0924-1669), 7.28. Moreover, the pIC50 in test [1] (T. tonsurans strain 1119-0616) was 7.21; in test [2] (setting [5]), 7.21 to 7.62; in test [2] (setting [6]), 7.52; in the test with T. rubrum, 6.52.

As for Bleomycin, the upper asymptote in test [2] (dose response (DR plate), reference strain of T. tonsurans) came out at 93.1. In addition, the pIC50 in test [2] (dose response (DR plate), reference strain of T. tonsurans, read-out: rMIC50) was 6.58. In test [3], the “Prelim H ratio” value was 0.40 and the “Prelim L ratio” value is 0.74.

For the origin of these results see patent US11154527B2, “Dermatophytosis prophylaxis and treatment” (The Children's Mercy Hospital, priority 2015, dated 2021).
